Measurements published in patent US7297535B2, “Use of the human LRP/MVP promotor for a vector that can be induced by therapy” (Max-Delbrück-Centrum Für Molekulare Medizin, priority 2000, dated 2007).

System: LRP/MVP promoter
Assay: Inducibility of LRP/MVP promoter by cytostatics (CAT expression)
Assay type: cell-based, human
Conditions: for inducibility of the human LRP/MVP gene promoter by therapy-relevant factors: general statement, no details given

| SMILES | induction of LRP/MVP-promoter-mediated CAT expression (24 h after cytostatic administration, FIG. 2) | inducibility of the human LRP/MVP gene promoter by therapy-relevant factors |
| --- | --- | --- |
| O=c1[nH]cc(F)c(=O)[nH]1 [5-fluoruracil] | induced | inductors |
| COc1cccc2c1C(=O)c1c(O)c3c(c(O)c1C2=O)C[C@@](O)(C(=O)CO)C[C@@H]3O[C@H]1C[C@H](N)[C@H](O)[C@H](C)O1 [adriamycin] | – | inductors |
| N.N.[Cl][Pt][Cl] [cisplatin] | – | inductors |
| CC[C@]1(O)C[C@H]2CN(CCc3c([nH]c4ccccc34)[C@@](C(=O)OC)(c3cc4c(cc3OC)N(C=O)[C@H]3[C@@](O)(C(=O)OC)[C@H](OC(C)=O)[C@]5(CC)C=CCN6CC[C@]43[C@@H]65)C2)C1 [vincristin] | – | inductors |
